# Legend:
# [1] = tested on: organ of Corti explants from Pou4f3-Cre; Mos-iCsp3 double transgenic mice; experiment: Organ of Corti explants after dimerizer-induced hair cell ablation; assay type: cell-based, mouse
# Source text: For the experiments using inner ear spheres, C57BL/6 (Jackson Labs) or Math1-nGFP reporter mouse (19) (a gift from Jane Johnson, University of Texas) of both sexes were used. To create organ of Corti explants with ablated hair cells, Mos-iCsp3 mice (20) were crossed with Pou4f3-Cre mice (6) (a gift from Douglas Vetter, Tufts University). For all in vivo experiments, we used 4-week-old Cre reporter line, mT/mG (Jackson Labs), crossed to a Sox2-CreER mouse (47) (a gift from Konrad Hochedlinger, Mass General Hospital). After genotyping, double transgenic animals were used for lineage tracing. We used young adult wild-type littermates of the mT/mG; Sox2-CreER mice to prevent strain effects in the response to noise, which are known to vary depending on background (22, 48). Mice were genotyped by PCR. […]
# For explants, the organs of Corti were fixed for 15 min with 4% paraformaldehyde in PBS. […] Primary antibodies were detected with secondary antibodies conjugated with Alexa 488 and 647 (Molecular Probes). The samples were stained with rhodamine phalloidin (Invitrogen) for 15 min and viewed by confocal fluorescence microscopy (TCS SP5, Leica).
# Cell counting for spheres was performed with MetaMorph software. The cell number was determined from DAPI- or Hoechst-positive nuclei. […] For explants, inner hair cells, outer hair cells, and supporting cells in the outer hair cell region were counted on cochlear whole mounts. […] High-power images of the full-length cochlea or cochlear explant cultures were assembled and analyzed in PhotoShop CS4 (Adobe). ImageJ software (NIH) was used to measure the total length of cochlear whole mounts and the length of individual counted segments. The total number of inner hair cells, outer hair cells, and supporting cells in the outer hair cell region was counted in each of four cochlear segments of 1200-1400 μm (apical, mid-apical, mid-basal, and basal). Density (cells per 100 μm) was then calculated for each segment. […] The number of Sox2-lineage-positive cells identified by GFP was counted by the same method. […]
# [2] = tested on: inner ear spheres made from Math1-nGFP mice; experiment: Hair cell differentiation from utricular spheres of neonatal Math1-nGFP reporter mice; assay type: cell-based, mouse; settings: compared with DAPT, L-685458, MDL28170; normalized to DMSO
# Protocol: The utricles and cochleae of 1- to 3-d-postnatal mice of both sexes were dissected, and after careful removal of the nerve trunk and mesenchymal tissues, were trypsinized and dissociated. Dissociated cells were centrifuged, and the pellet was resuspended and filtered through a 70 μm cell strainer (BD Biosciences Discovery Labware) in DMEM/F12 medium with N2/B27 supplement, EGF (20 ng/ml), IGF1 (50 ng/ml), bFGF (10 ng/ml), and heparan sulfate (50 ng/ml) (Sigma). The single cells were cultured in nonadherent Petri dishes (Greiner Bio-One) to initiate clonal growth of spheres (49). Spheres that formed after 2-3 d in culture were passaged every 4-6 d. […]
# Cell counting for spheres was performed with MetaMorph software. The cell number was determined from DAPI- or Hoechst-positive nuclei. […] For explants, inner hair cells, outer hair cells, and supporting cells in the outer hair cell region were counted on cochlear whole mounts. […] High-power images of the full-length cochlea or cochlear explant cultures were assembled and analyzed in PhotoShop CS4 (Adobe). ImageJ software (NIH) was used to measure the total length of cochlear whole mounts and the length of individual counted segments. The total number of inner hair cells, outer hair cells, and supporting cells in the outer hair cell region was counted in each of four cochlear segments of 1200-1400 μm (apical, mid-apical, mid-basal, and basal). […]
smiles,measurement,setting,value
"C[C@H](NC(=O)[C@@H](O)c1cc(F)cc(F)c1)C(=O)N[C@@H]1C(=O)N(C)c2ccccc2-c2ccccc21 [LY411575, N-2((2S)-2-(3,5-difluorophenyl)-2-hydroxyethanoyl)-N1-((7S)-5-methyl-6-oxo-6,7-dihydro-5H-dibenzo[b,d]azepin-7-yl)-l-alaninamide]",number of inner hair cells,[1]; any group,no significant differences
same,number of myosin VIIa-positive (hair) cells in the outer hair cell region,"[1]; hair cell-ablated explants, cultured 3 d, p<0.05",increased
same,number of Sox2-positive (supporting) cells,"[1]; mid-apex and mid-base of the cochlea, p<0.05",decrease
same,potency for hair cell induction (nGFP-positive cells to DAPI-positive cells) among the four γ-secretase inhibitors,[2],highest potency

# From US12161647B2, “Treating hearing loss” (Massachusetts Eye and Ear Infirmary, priority 2012, dated 2024)
